From US12649733B2, “3,6-diamino-pyridazin-3-yl derivatives, pharmaceutical compositions containing them and their uses as pro-apoptotic agents” (LES LABORATOIRES SERVIER, priority 2019, dated 2026)

Tests used:
[1] = tested on: MOLT-4 cells; test: MOLT-4 cell viability, MTT assay; type: cell-based; details: 48 h exposure
How it was run: (§1)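 Cells grown in RPMI 1640 with 10% heat-inactivated FBS at 37° C, 5% CO2, exposed 48 h to nine 3.16-fold serial compound dilutions in triplicate. MTT added for 4 h, SDS/HCl solubilisation overnight, absorbance at 540 nm; IC50 by four-parameter fit.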

[2] = tested on: H146 cells; test: H146 cell viability, MTT assay; type: cell-based; details: 48 h exposure
How it was run: as §1

[3] = biological target: T1, Bcl-xL protein (Homo sapiens, UniProt Q07817, N197C); test: Fluorescence quenching assay (PUMA peptide displacement); type: binding; details: 1 nM protein, 400 nM peptide, 2 hours at 23° C.; KI determined from IC50
T1 construct: (2-197)[N197C]; His-His (two His8 stretches joined by a Gly/Ala/Ser/Thr linker)
Text: Fluorescence quenching assay measures the change in fluorescence intensity of C-terminally Cy5-labeled BCL-xL protein, His-His-(EK)-hs ? (2-197)[N197C] (UniProtKB® primary accession number Q07817-1) having an amino acid sequence (SEQ ID:03): [[…] […] […] […] […]] which is linked in C-terminal region to the amino acid X which corresponds to a cysteine labeled on the sulfur with Sulfo-Cyanine5 from Lumiprobe GmbH catalogue number 13380, upon binding of a C-terminally labeled peptide derived from PUMA (UniProtKB® primary accession number Q9BXH1) having an aminoacid sequence (SEQ ID:04): [[…]] which is linked in C-terminal region to the amino acid X′ where X′ is cysteine labeled on the sulfur with TQ5WS from AAT Bioquest catalogue number 2079.
The addition of a compound which binds competitively to the same site as the peptide will result in an increase in the fluorescence intensity of the protein due to displacement of the fluorescence quencher.
An 11-point serial dilution of each compound was prepared in DMSO the final buffer conditions were 10 mM 4-(2-hydroxyethyl)-1-piperazineethanesulfonic acid [HEPES], 150 mM NaCl, 0.05% Tween 20, pH 7.4 and 5% DMSO. The final protein concentration in the assay was 1 nM with the peptide present at 400 nM. The experiments were incubated for 2 hours at 23° C. before fluorescence intensity was measured on a Biotek SynergyNeo plate reader (Excitation 620 nm, emission 680 nm). […] The KI values were determined from the IC50 values according to Cer et al, Nucleic Acids Res, 2009, Jul. 1: 37(WebServer issue): W441-W445.

T1 sequence (Q07817 2-197 N197C): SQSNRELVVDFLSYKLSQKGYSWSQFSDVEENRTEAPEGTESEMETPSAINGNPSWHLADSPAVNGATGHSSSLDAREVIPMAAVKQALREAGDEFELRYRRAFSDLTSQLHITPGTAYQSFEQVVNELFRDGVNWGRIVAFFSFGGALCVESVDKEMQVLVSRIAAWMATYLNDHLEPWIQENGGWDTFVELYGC

| IC50 ([1]; Homo sapiens, MOLT-4, 48 h) | IC50 [2] | Ki [3] | IC50 [1] | IC50 ([2]; Homo sapiens, NCI-H146, 48 h) | Compound |
| --- | --- | --- | --- | --- | --- |
| 1.48 nM | 15 nM | 0.009 nM |  |  | Cc1cc(N(C)c2nc(C(=O)O)c(CCCOc3ccc(C#CC(C)N4CCOCC4)cc3F)s2)nnc1Nc1nc2ccccc2s1 (single isomer, unassigned) [Example 206, 2-[[6-(1,3-Benzothiazol-2-ylamino)-5-methyl-pyridazin-3-yl]-methyl-amino]-5-[3-[2-fluoro-4-((3R or 3S)-morpholinobut-1-ynyl)phenoxy]propyl]thiazole-4-carboxylic acid] |
|  | 7.33 nM | 0.0088 nM | 0.753 nM |  | Cc1cc(N(C)c2nc(C(=O)O)c(CCCOc3ccc(C#CC(C)N4CCOCC4)cc3F)s2)nnc1Nc1nc2ccccc2s1 (single isomer, unassigned) [Example 208, 2-[[6-(1,3-Benzothiazol-2-ylamino)-5-methyl-pyridazin-3-yl]-methyl-amino]-5-[3-[2-fluoro-4-((3S or 3R)-morpholinobut-1-ynyl)phenoxy]propyl]thiazole-4-carboxylic acid] |
| 204 nM |  | 0.0011 nM |  | 75 nM | Cc1cc(N(CCCCN2CCC(N)CC2)c2nc(C(=O)O)c(CCCOc3ccc(C#CCN(C)C)cc3F)s2)nnc1Nc1nc2ccccc2s1 [Example 175, 2-[4-(4-Amino-1-piperidyl)butyl-[6-(1,3-benzothiazol-2-ylamino)-5-methyl-pyridazin-3-yl]amino]-5-[3-[4-[3-(dimethylamino)prop-1-ynyl]-2-fluoro-phenoxy]propyl]thiazole-4-carboxylic acid] |
| 76.2 nM |  | 0.0011 nM |  | 124 nM | CCN(CC)CCNCCCCN(c1cc(C)c(Nc2nc3ccccc3s2)nn1)c1nc(C(=O)O)c(CCCOc2ccc(C#CCN(C)C)cc2F)s1 [Example 176, 2-[[6-(1,3-Benzothiazol-2-ylamino)-5-methyl-pyridazin-3-yl]-[4-[2-(diethylamino)ethylamino]butyl]amino]-5-[3-[4-[3-(dimethylamino)prop-1-ynyl]-2-fluoro-phenoxy]propyl]thiazole-4-carboxylic acid] |
| 225 nM |  | 0.003 nM |  | 36.3 nM | Cc1cc(N(CCCCCN2CCC(N)CC2)c2nc(C(=O)O)c(CCCOc3ccc(C#CCN(C)C)cc3F)s2)nnc1Nc1nc2ccccc2s1 [Example 177, 2-[5-(4-Amino-1-piperidyl)pentyl-[6-(1,3-benzothiazol-2-ylamino)-5-methyl-pyridazin-3-yl]amino]-5-[3-[4-[3-(dimethylamino)prop-1-ynyl]-2-fluoro-phenoxy]propyl]thiazole-4-carboxylic acid] |
| 129 nM |  | 0.0074 nM |  | 199 nM | CCN(CC)CCNCCCCCN(c1cc(C)c(Nc2nc3ccccc3s2)nn1)c1nc(C(=O)O)c(CCCOc2ccc(C#CCN(C)C)cc2F)s1 [Example 182, 2-[[6-(1,3-Benzothiazol-2-ylamino)-5-methyl-pyridazin-3-yl]-[5-[2-(diethylamino)ethylamino]pentyl]amino]-5-[3-[4-[3-(dimethylamino)prop-1-ynyl]-2-fluoro-phenoxy]propyl]thiazole-4-carboxylic acid] |
| 46.5 nM |  | 0.0078 nM |  | 187 nM | COC(COc1ccc(C#CCN(C)C)cc1F)Cc1sc(N(C)c2cc(C)c(Nc3nc4ccccc4s3)nn2)nc1C(=O)O (stereo not drawn) [Example 183, 2-({6-[(1,3-Benzothiazol-2-yl)amino]-5-methylpyridazin-3-yl}(methyl)amino)-5-(3-{4-[3-(dimethylamino)prop-1-yn-1-yl]-2-fluorophenoxy}-2-methoxypropyl)-1,3-thiazole-4-carboxylic acid] |
| 184 nM |  | 0.0036 nM |  | 107 nM | Cc1cc(N(CCCCN2CCNCC2)c2nc(C(=O)O)c(CCCOc3ccc(C#CCN(C)C)cc3F)s2)nnc1Nc1nc2ccccc2s1 [Example 184, 2-[[6-(1,3-Benzothiazol-2-ylamino)-5-methyl-pyridazin-3-yl]-(4-piperazin-1-ylbutyl)amino]-5-[3-[4-[3-(dimethylamino)prop-1-ynyl]-2-fluoro-phenoxy]propyl]thiazole-4-carboxylic acid] |
| 16.8 nM |  | 0.0012 nM |  | 7 nM | CNC/C=C/c1ccc(OCCCc2sc(N(CCCCO)c3cc(C)c(Nc4nc5ccccc5s4)nn3)nc2C(=O)O)c(F)c1 [Example 185, 2-[[6-(1,3-Benzothiazol-2-ylamino)-5-methyl-pyridazin-3-yl]-(4-hydroxybutyl)amino]-5-[3-[2-fluoro-4-[(E)-3-(methylamino)prop-1-enyl]phenoxy]propyl]thiazole-4-carboxylic acid] |
| 85.3 nM |  | 0.001 nM |  | 16.9 nM | CNCCCc1ccc(OCCCc2sc(N(CCCCO)c3cc(C)c(Nc4nc5ccccc5s4)nn3)nc2C(=O)O)c(F)c1 [Example 186, 2-[[6-(1,3-Benzothiazol-2-ylamino)-5-methyl-pyridazin-3-yl]-(4-hydroxybutyl)amino]-5-[3-[2-fluoro-4-[3-(methylamino)propyl]phenoxy]propyl]thiazole-4-carboxylic acid] |
| 103 nM |  | 0.0025 nM |  | 23400 nM | Cc1cc(N(CCCCCNCCN2CCCCC2)c2nc(C(=O)O)c(CCCOc3ccc(C#CCN(C)C)cc3F)s2)nnc1Nc1nc2ccccc2s1 [Example 187, 2-[[6-(1,3-Benzothiazol-2-ylamino)-5-methyl-pyridazin-3-yl]-[5-[2-(1-piperidyl)ethylamino]pentyl]amino]-5-[3-[4-[3-(dimethylamino)prop-1-ynyl]-2-fluoro-phenoxy]propyl]thiazole-4-carboxylic acid] |
|  |  | 0.0013 nM |  | 43.9 nM | CNCC#Cc1cc(F)c(OCCCc2sc(N(C)c3cc(C)c(Nc4nc5ccccc5s4)nn3)nc2C(=O)O)cn1 [Example 197, 2-({6-[(1,3-Benzothiazol-2-yl)amino]-5-methylpyridazin-3-yl}(methyl)amino)-5-[3-({4-fluoro-6-[3-(methylamino)prop-1-yn-1-yl]pyridin-3-yl}oxy)propyl]-1,3-thiazole-4-carboxylic acid] |
|  |  | 0.22 nM |  | > 30000 nM | Cc1cc(N(CCCC(O)C[N+](C)(C)CCCS(=O)(=O)[O-])c2nc(C(=O)O)c(CCCOc3ccc(/C=C/C=O)cc3F)s2)nnc1Nc1nc2ccccc2s1 (stereo not drawn) [Example 228, 3-[[5-[[6-(1,3-Benzothiazol-2-ylamino)-5-methyl-pyridazin-3-yl]-[4-carboxy-5-[3-[2-fluoro-4-[(E)-3-oxoprop-1-enyl]phenoxy]propyl]thiazol-2-yl]amino]-2-hydroxy-pentyl]-dimethyl-ammonio]propane-1-sulfonate] |
| 0.182 nM |  | 0.0027 nM |  |  | COCCCNCCOC12CC3(C)CC(C)(CC(Cn4ncc(-c5ccc(N(C)c6cc(C)c(Nc7nc8ccccc8s7)nn6)nc5C(=O)O)c4C)(C3)C1)C2 [Example 269, 6-[[6-(1,3-benzothiazol-2-ylamino)-5-methyl-pyridazin-3-yl]-methyl-amino]-3-[1-[[3-[2-(3-methoxypropylamino)ethoxy]-5,7-dimethyl-1-adamantyl]methyl]-5-methyl-pyrazol-4-yl]pyridine-2-carboxylic acid] |
| 0.199 nM |  | 0.003 nM |  |  | Cc1cc(N(C)c2ccc(-c3cnn(CC45CC6(C)CC(C)(C4)CC(OCCN4CCOCC4)(C6)C5)c3C)c(C(=O)O)n2)nnc1Nc1nc2ccccc2s1 [Example 270, 6-[[6-(1,3-benzothiazol-2-ylamino)-5-methyl-pyridazin-3-yl]-methyl-amino]-3-[1-[[3,5-dimethyl-7-(2-morpholinoethoxy)-1-adamantyl]methyl]-5-methyl-pyrazol-4-yl]pyridine-2-carboxylic acid] |
| 30.8 nM |  | 0.0033 nM |  |  | Cc1cc(N(C)c2ccc(-c3cnn(CC45CC6(C)CC(C)(C4)CC(OCCNCCC(=O)O)(C6)C5)c3C)c(C(=O)O)n2)nnc1Nc1nc2ccccc2s1 [Example 271, 6-[[6-(1,3-benzothiazol-2-ylamino)-5-methyl-pyridazin-3-yl]-methyl-amino]-3-[1-[[3-[2-(2-carboxyethylamino)ethoxy]-5,7-dimethyl-1-adamantyl]methyl]-5-methyl-pyrazol-4-yl]pyridine-2-carboxylic acid] |
| 0.284 nM |  | 0.0023 nM |  |  | Cc1cc(N(C)c2ccc(-c3cnn(CC45CC6(C)CC(C)(C4)CC(OCCNCc4cccc(O)c4)(C6)C5)c3C)c(C(=O)O)n2)nnc1Nc1nc2ccccc2s1 [Example 272, 6-[[6-(1,3-benzothiazol-2-ylamino)-5-methyl-pyridazin-3-yl]-methyl-amino]-3-[1-[[3-[2-[(3-hydroxyphenyl)methylamino]ethoxy]-5,7-dimethyl-1-adamantyl]methyl]-5-methyl-pyrazol-4-yl]pyridine-2-carboxylic acid] |
